Here are results for one molecule from article PMC4879640 (Frontiers in Microbiology, 2016).

This assay has as its system T1, H6-PnpA (PNP 4-monooxygenase).
T1 construct: N-terminal His6 tag, pET-28a (NdeI-XhoI), E. coli Rosetta(DE3)pLysS; gene pnpA of the pnpABA1CDEF cluster (not pnpA1)
Format: biochemical, Burkholderia sp. SJ98. The settings on record: read-out: apparent Km.

Turning to `Cc1cc(O)ccc1[N+](=O)[O-]` [3-methyl-4-nitrophenol], the Km is 20.3 ± 2.54 µM.
